This passage reports IC50 results from ChEMBL document CHEMBL4020777, “Cytotoxic and apoptosis-inducing activities against human lung cancer cell lines of cassaine diterpenoids from the bark of Erythrophleum fordii” (Bioorg Med Chem Lett, 2017).

Some results are limits rather than exact numbers.

The test system of the first assay is A549. The assay is described as follows: Cytotoxicity against human A549 cells by MTT assay. The assay is classed as functional, cell-based. (In general: Formazan colour is commonly taken as a measure of viable cells.)
For the compound `COC(=O)/C=C1\CC[C@H]2[C@@H](C(=O)[C@H](O)[C@@H]3[C@]2(C)CCC[C@]3(C)C(=O)OC)[C@H]1C`, the IC50 – broadly, the concentration at which inhibition is half-maximal – was over 10 µM.
Still for that read-out and setting: with `COC(=O)[C@@]1(C)CCC[C@@]2(C)[C@H]1[C@@H](O)C(=O)[C@H]1[C@@H](C)/C(=C/C(=O)OCCN(C)C)CC[C@@H]12` the figure was 4.8 µM.
Consider `COC(=O)/C=C1\CC[C@H]2[C@@H](C(=O)C[C@@H]3[C@]2(C)CC[C@H](OC(C)=O)[C@]3(C)C(=O)OC)[C@H]1C`, for which the half-inhibitory concentration (IC50) was over 10 µM.
In turn, `COC(=O)[C@@]1(C)CCC[C@@]2(C)[C@H]1CC(=O)[C@H]1[C@@H](C)/C(=C/C(=O)OCCN(C)C)CC[C@@H]12` registered an IC50 of 3.4 µM.
The same measure, in the same setting: for `CNCCOC(=O)/C=C1\CC[C@H]2[C@@H](C(=O)[C@H](O)[C@@H]3[C@]2(C)CCC[C@]3(C)C(=O)OC)[C@H]1C` the value was 2.1 µM; for `COC(=O)/C=C1\CC[C@H]2[C@@H]([C@@H](O)C(=O)[C@@H]3[C@]2(C)CCC[C@]3(C)C(=O)OC)[C@H]1C`, over 10 µM.
On the same count and under the same terms, for `COC(=O)[C@@]1(C)CCC[C@@]2(C)[C@H]1C(=O)[C@H](O)[C@H]1[C@@H](C)/C(=C/C(=O)OCCN(C)C)CC[C@@H]12` the value was over 10 µM.

Another assay has as its system NCI-H1975. In words: Cytotoxicity against human NCI-H1975 cells by MTT assay. The assay is classed as functional, cell-based.
On to `COC(=O)/C=C1\CC[C@H]2[C@@H](C(=O)[C@H](O)[C@@H]3[C@]2(C)CCC[C@]3(C)C(=O)OC)[C@H]1C`, for which the IC50 was over 10 µM.
`COC(=O)[C@@]1(C)CCC[C@@]2(C)[C@H]1[C@@H](O)C(=O)[C@H]1[C@@H](C)/C(=C/C(=O)OCCN(C)C)CC[C@@H]12`: the IC50 stood at 5.9 µM.
On the same count and under the same terms, for `COC(=O)/C=C1\CC[C@H]2[C@@H](C(=O)C[C@@H]3[C@]2(C)CC[C@H](OC(C)=O)[C@]3(C)C(=O)OC)[C@H]1C` the value was over 10 µM; for `COC(=O)[C@@]1(C)CCC[C@@]2(C)[C@H]1CC(=O)[C@H]1[C@@H](C)/C(=C/C(=O)OCCN(C)C)CC[C@@H]12`, 2.1 µM; for `CNCCOC(=O)/C=C1\CC[C@H]2[C@@H](C(=O)[C@H](O)[C@@H]3[C@]2(C)CCC[C@]3(C)C(=O)OC)[C@H]1C`, 3.3 µM.
The same measure, in the same setting: for `COC(=O)/C=C1\CC[C@H]2[C@@H]([C@@H](O)C(=O)[C@@H]3[C@]2(C)CCC[C@]3(C)C(=O)OC)[C@H]1C` the value was over 10 µM; for `COC(=O)[C@@]1(C)CCC[C@@]2(C)[C@H]1C(=O)[C@H](O)[C@H]1[C@@H](C)/C(=C/C(=O)OCCN(C)C)CC[C@@H]12`, over 10 µM.

In another assay the test system is NCI-H1299. In words: Cytotoxicity against human NCI-H1299 cells by MTT assay. The assay is classed as functional, cell-based.
Compound `COC(=O)/C=C1\CC[C@H]2[C@@H](C(=O)[C@H](O)[C@@H]3[C@]2(C)CCC[C@]3(C)C(=O)OC)[C@H]1C` displayed an IC50 of over 10 µM.
Still for that read-out and setting: for `COC(=O)[C@@]1(C)CCC[C@@]2(C)[C@H]1[C@@H](O)C(=O)[C@H]1[C@@H](C)/C(=C/C(=O)OCCN(C)C)CC[C@@H]12` the value was 3.8 µM; for `COC(=O)/C=C1\CC[C@H]2[C@@H](C(=O)C[C@@H]3[C@]2(C)CC[C@H](OC(C)=O)[C@]3(C)C(=O)OC)[C@H]1C`, over 10 µM.
On to `COC(=O)[C@@]1(C)CCC[C@@]2(C)[C@H]1CC(=O)[C@H]1[C@@H](C)/C(=C/C(=O)OCCN(C)C)CC[C@@H]12`, for which the IC50 stood at 1.9 µM.
Same read-out and setting: with `CNCCOC(=O)/C=C1\CC[C@H]2[C@@H](C(=O)[C@H](O)[C@@H]3[C@]2(C)CCC[C@]3(C)C(=O)OC)[C@H]1C` the figure was 1.5 µM; with `COC(=O)/C=C1\CC[C@H]2[C@@H]([C@@H](O)C(=O)[C@@H]3[C@]2(C)CCC[C@]3(C)C(=O)OC)[C@H]1C`, over 10 µM; with `COC(=O)[C@@]1(C)CCC[C@@]2(C)[C@H]1C(=O)[C@H](O)[C@H]1[C@@H](C)/C(=C/C(=O)OCCN(C)C)CC[C@@H]12`, over 10 µM.
